In publication PMC7749516, “Safety and nonclinical and clinical pharmacokinetics of PC945, a novel inhaled triazole antifungal agent” (Pharmacology Research & Perspectives, 2020):

Test: First-in-human safety and tolerability (adverse events, spirometry)
Format: in vivo
Settings: for No. of subjects with treatment‐emergent adverse events attributed to study drug / Subjects with drug-related adverse event: Cough / Subjects with drug-related adverse event: Diarrhea / Subjects with drug-related adverse event: Dizziness / Subjects with drug-related adverse event: Fatigue / Subjects with drug-related adverse event: Feces soft / Subjects with drug-related adverse event: Headache / Subjects with drug-related adverse event: Lethargy / Subjects with drug-related adverse event: Muscle spasms / Subjects with drug-related adverse event: Nausea / Subjects with drug-related adverse event: Productive cough / Subjects with drug-related adverse event: Throat tightness: N = 6
Description: This PC945 first‐in‐human clinical trial (ClinicalTrials.gov Identifier: NCT02715570) was a two‐part randomized, placebo‐controlled study to assess the safety and tolerability of PC945 in both healthy subjects and subjects with mild asthma, conducted at Parexel Early Phase Clinical Unit (Harrow, UK). The study was considered single‐blind as the appearance of active and placebo doses were different, however, it was conducted in a double‐blind manner (employing separate dosing and assessment teams).
Part one consisted of a single dose escalation study (Cohort 1) and a repeat dose study (Cohort 2) of inhaled PC945 in healthy subjects. Part two comprised a single dose study of inhaled PC945 in subjects with mild asthma (Cohort 3). The doses selected were predicted to achieve target lung concentrations above the IC90/MIC90 for A. fumigatus (based on data from a range of in vitro and in vivo systems) throughout a 24‐hour period and with a suitable safety margin based on animal toxicology data.
Safety was evaluated based on assessments of adverse events, physical examination, vital signs, 12‐lead electrocardiogram, spirometry and clinical laboratory tests. The verbatim terms used to identify adverse events were coded using the Medical Dictionary for Regulatory Activities (version 20.1). All adverse events were mapped to system organ class and preferred term.
Spirometry parameters (FEV1 and FVC) were measured in all subjects to evaluate the local tolerability and potential for bronchospasm of PC945 in accordance with American Thoracic Society/European Respiratory Society guidelines. Predicted values were calculated using National Health and Nutrition Examination Survey reference equations. ^18 , ^19

[1] = Cohort 1 healthy, single dose 0.5 mg
[2] = Cohort 1 healthy, single dose 2 mg
[3] = Cohort 1 healthy, single dose 5 mg
[4] = Cohort 1 healthy, single dose 10 mg
[5] = Cohort 2 healthy, 5 mg once daily for 7 days
[6] = Cohort 3 mild asthma, single dose 5 mg

In the case of Cc1cc(N2CCN(c3ccc(C(=O)Nc4ccc(F)cc4)cc3)CC2)ccc1OC[C@@H]1CO[C@@](Cn2cncn2)(c2ccc(F)cc2F)C1 [PC945], the “No. of subjects with treatment‐emergent adverse events attributed to study drug” value (“No. of subjects” for short) [1] was 1 (16.67) n (%), the “Subjects with drug-related adverse event: Cough” value [1] was 0 n (%) and the “Subjects with drug-related adverse event: Diarrhea” value (“Subjects … Diarrhea” for short) [1] was 0 n (%). For the same molecule, the “Subjects with drug-related adverse event: Dizziness” value (from here on “Subjects … Dizziness”) [1] was 0 n (%), the “Subjects with drug-related adverse event: Fatigue” value (shortened to “Subjects … Fatigue”) [1] was 1 (16.67) n (%) and the “Subjects with drug-related adverse event: Feces soft” value (from here on “Subjects … Feces soft”) [1] was 0 n (%). The “Subjects with drug-related adverse event: Headache” value (“Subjects … Headache” below) [1] was 0 n (%), the “Subjects with drug-related adverse event: Lethargy” value (“Subjects … Lethargy” for short) [1] was 0 n (%) and the “Subjects with drug-related adverse event: Muscle spasms” value (from here on “Subjects … Muscle spasms”) [1] was 0 n (%). The “Subjects with drug-related adverse event: Nausea” value (shortened to “Subjects … Nausea”) [1] was 0 n (%), the “Subjects with drug-related adverse event: Productive cough” value (“Subjects … Productive cough” for short) [1] was 0 n (%) and the “Subjects with drug-related adverse event: Throat tightness” value (from here on “Subjects … Throat tightness”) [1] was 0 n (%). For the same molecule, the “No. of subjects” value [2] was 0 n (%), the “Subjects with drug-related adverse event: Cough” value [2] was 0 n (%) and the “Subjects … Diarrhea” value [2] was 0 n (%). For the same molecule, the “Subjects … Dizziness” value [2] was 0 n (%), the “Subjects … Fatigue” value [2] was 0 n (%) and the “Subjects … Feces soft” value [2] was 0 n (%). The “Subjects … Headache” value [2] was 0 n (%), the “Subjects … Lethargy” value [2] was 0 n (%) and the “Subjects … Muscle spasms” value [2] was 0 n (%). For the same molecule, the “Subjects … Nausea” value [2] was 0 n (%), the “Subjects … Productive cough” value [2] was 0 n (%) and the “Subjects … Throat tightness” value [2] was 0 n (%). For the same molecule, the “No. of subjects” value [3] was 2 (33.33) n (%), the “Subjects with drug-related adverse event: Cough” value [3] was 0 n (%) and the “Subjects … Diarrhea” value [3] was 0 n (%). For the same molecule, the “Subjects … Dizziness” value [3] was 1 (16.67) n (%), the “Subjects … Fatigue” value [3] was 0 n (%) and the “Subjects … Feces soft” value [3] was 1 (16.67) n (%). The “Subjects … Headache” value [3] was 1 (16.67) n (%), the “Subjects … Lethargy” value [3] was 1 (16.67) n (%) and the “Subjects … Muscle spasms” value [3] was 1 (16.67) n (%). For the same molecule, the “Subjects … Nausea” value [3] was 1 (16.67) n (%), the “Subjects … Productive cough” value [3] was 0 n (%) and the “Subjects … Throat tightness” value [3] was 0 n (%). For the same molecule, the “No. of subjects” value [4] was 2 (33.33) n (%), the “Subjects with drug-related adverse event: Cough” value [4] was 0 n (%) and the “Subjects … Diarrhea” value [4] was 1 (16.67) n (%). For the same molecule, the “Subjects … Dizziness” value [4] was 1 (16.67) n (%), the “Subjects … Fatigue” value [4] was 0 n (%) and the “Subjects … Feces soft” value [4] was 0 n (%). The “Subjects … Headache” value [4] was 1 (16.67) n (%), the “Subjects … Lethargy” value [4] was 0 n (%) and the “Subjects … Muscle spasms” value [4] was 0 n (%). For the same molecule, the “Subjects … Nausea” value [4] was 1 (16.67) n (%), the “Subjects … Productive cough” value [4] was 0 n (%) and the “Subjects … Throat tightness” value [4] was 0 n (%). The “No. of subjects” value [5] was 2 (33.33) n (%), the “Subjects with drug-related adverse event: Cough” value [5] was 0 n (%) and the “Subjects … Diarrhea” value [5] was 0 n (%). The “Subjects … Dizziness” value [5] was 0 n (%), the “Subjects … Fatigue” value [5] was 0 n (%) and the “Subjects … Feces soft” value [5] was 0 n (%). For the same molecule, the “Subjects … Headache” value [5] was 1 (16.67) n (%), the “Subjects … Lethargy” value [5] was 0 n (%) and the “Subjects … Muscle spasms” value [5] was 0 n (%). For the same molecule, the “Subjects … Nausea” value [5] was 1 (16.67) n (%), the “Subjects … Productive cough” value [5] was 0 n (%) and the “Subjects … Throat tightness” value [5] was 0 n (%). The “No. of subjects” value [6] was 0 n (%), the “Subjects with drug-related adverse event: Cough” value [6] was 0 n (%) and the “Subjects … Diarrhea” value [6] was 0 n (%). For the same molecule, the “Subjects … Dizziness” value [6] was 0 n (%), the “Subjects … Fatigue” value [6] was 0 n (%) and the “Subjects … Feces soft” value [6] was 0 n (%). For the same molecule, the “Subjects … Headache” value [6] was 0 n (%), the “Subjects … Lethargy” value [6] was 0 n (%) and the “Subjects … Muscle spasms” value [6] was 0 n (%). The “Subjects … Nausea” value [6] was 0 n (%), the “Subjects … Productive cough” value [6] was 0 n (%) and the “Subjects … Throat tightness” value [6] was 0 n (%). For the same molecule, the “Deaths or serious adverse events” value (all cohorts) was “no deaths or serious adverse events”, the “Changes in lung function” value (healthy subjects) was “No clinically significant changes in lung function” and the Tolerability (single doses up to 10 mg and 5 mg daily for 7 days in healthy subjects, single 5 mg in mild asthma) was “well tolerated”. For the same molecule, the “Acute bronchospasm or significant change in lung function (>15% change from baseline)” value (subjects with mild asthma, single 5 mg) was “no evidence of acute bronchospasm or significant change in lung function” and the Irritancy (subjects with mild asthma, single dose 5 mg) was “No evidence of irritancy”.
